Experimental data from patent publication US20170166561A1, “QUINUCLIDINE COMPOUNDS FOR MODULATING ALPHA7-NICOTINIC ACETYLCHOLINE RECEPTOR ACTIVITY” (Alpharmagen, LLC, priority 2014, published 2017).
Counter-ions that a name gives are not always drawn.

Test: Human plasma stability (Protocols 1 and 2)
Format: in vitro ADME
Settings: human, plasma, 2 h, 1 μM, pH 7.4
Protocol: Example B6: Human Plasma Stability
Studies were carried out in human plasma. All plasma was obtained from Bioreclamation and collected on sodium heparin. Plasma was adjusted to pH 7.4. A DMSO stock was first prepared for the test compound. An aliquot of the DMSO solution was dosed into 1 mL of plasma, which had been pre-warmed to 37° C., at a final test compound concentration of 1 μM. The vials were kept in a benchtop Thermomixer® for the duration of the experiment. Aliquots (100 μL) were taken at each time point (0, 15, 30, 60, and 120 minutes) and added to 96-well plates which had been pre-filled with 300 μL of acetonitrile. Samples were stored at 4° C. until the end of the experiment. After the final time point was sampled, the plate was mixed and then centrifuged at 3,000 rpm for 10 minutes. Aliquots of the supernatant were removed, diluted 1:1 into distilled water, and analyzed by LC-MS/MS. The peak area response ratio to internal standard (PARR) of the compound at 15, 30, 60 and 120 minutes was compared to the PARR at time 0 to determine the percent of test compound remaining at each time point. Half-lives were calculated using GraphPad software, fitting to a single-phase exponential decay equation.
Studies were carried out in plasma. Plasma was prepared under approval of IRB and IACUC on sodium heparin. The pH of plasma was monitored and used within the range of pH 7.4 to pH 8.0. DMSO stocks were prepared for the test compounds. Aliquots of the DMSO solutions were diluted to 0.05 mM by 0.05 mM Sodium phosphate buffer with 0.5% BSA. Then 10 μL of 0.05 mM solutions were dosed into 90 μL of plasma in duplicates (n=2), which had been pre-warmed to 37° C., at a final test compound concentration of 5 μM. The plates were kept in a 37° C. water bath for the duration of the experiment. At each time point (0, 5, 15, 30, 45, 60, and 120 minutes), 400 μL of acetonitrile was added into corresponding wells. After the final time point was sampled, the plates were shaken at the vibrator (IKA, MTS 2/4) for 10 min (600 rpm/min) and then centrifuged at 5594 g for 15 min (Thermo Multifuge×3R). Aliquots of the supernatant were removed, diluted 1:1 into distilled water, and analyzed by LC-MS/MS. The peak area response ratio to internal standard (PARR) of the compounds at 5, 15, 30, 45, 60, and 120 minutes was compared to the PARR at time 0 to determine the percent of test compound remaining at each time point. Half-lives were calculated using Excel software, fitting to a single-phase exponential decay equation.

Row | SMILES | % Remaining @ 2 h
1 | O=C(OCC12CCN(CC1)CC2)c1c[nH]c2ccc(F)cc12 [Compound 12, quinuclidin-4-ylmethyl 5-fluoro-1H-indole-3-carboxylate] | 31%
2 | Cc1cccc2[nH]cc(C(=O)OCC34CCN(CC3)CC4)c12 [Compound 21, quinuclidin-4-ylmethyl 4-methyl-1H-indole-3-carboxylate] | 83%
3 | N#Cc1ccc2c(C(=O)OCC34CCN(CC3)CC4)c[nH]c2c1 [Compound 28, quinuclidin-4-ylmethyl 6-cyano-1H-indole-3-carboxylate] | 79%
4 | O=C(OCC12CCN(CC1)CC2)c1c[nH]c2ccccc12 [Compound 1, quinuclidin-4-ylmethyl 1H-indole-3-carboxylate] | 11%
5 | COc1ccc2[nH]cc(C(=O)OCC34CCN(CC3)CC4)c2c1 [Compound 18, quinuclidin-4-ylmethyl 5-methoxy-1H-indole-3-carboxylate] | 5.8%
6 | COc1ccc2[nH]cc(C(=O)OCC34CCN(CC3)CC4)c2c1C [Compound 34, quinuclidin-4-ylmethyl 5-methoxy-4-methyl-1H-indole-3-carboxylate] | 55%
7 | O=C(OCC12CCN(CC1)CC2)c1c[nH]c2cc(Br)ccc12 [Compound 22, quinuclidin-4-ylmethyl 6-bromo-1H-indole-3-carboxylate] | 58%
8 | Cc1ccc2[nH]cc(C(=O)OCC34CCN(CC3)CC4)c2c1 [Compound 20, quinuclidin-4-ylmethyl 5-methyl-1H-indole-3-carboxylate] | 14%

Same assay, conditions: human, plasma, pH 7.4

Row | SMILES | half-life at 5 μM | T1/2
9 | COc1cc(C)cc2[nH]cc(C(=O)OCC34CCN(CC3)CC4)c12 [Compound 85, quinuclidin-4-ylmethyl 4 methoxy-6-methyl-1H-indole-3-carboxylate] | 1.16 h | –
10 | Cc1cc(OC(=O)C(C)(C)C)cc2[nH]cc(C(=O)OCC34CCN(CC3)CC4)c12 [Compound 89, quinuclidin-4-ylmethyl 4-methyl-6-(pivaloyloxy)-1H-indole-3-carboxylate] | 5.16 h | –
11 | O=C(OCC12CCN(CC1)CC2)c1c[nH]c2ccc3c(c12)OCCO3 [Compound 81, quinuclidin-4-ylmethyl 2,3-dihydro-7H-[1,4]dioxino[2,3-e]indole-9-carboxylate] | 4.5 h | –
12 | COc1ccc2[nH]cc(C(=O)OCC34CCN(CC3)CC4)c2c1Cl [Compound 39, quinuclidin-4-ylmethyl 4-chloro-5-methoxy-1H-indole-3-carboxylate] | 0.711 h | –
13 | Cc1ccc2[nH]cc(C(=O)OCC34CCN(CC3)CC4)c2c1Br [Compound 68, quinuclidin-4-ylmethyl 4-bromo-5-methyl-1H-indole-3-carboxylate] | – | ∞
14 | O=C(OCC12CCN(CC1)CC2)c1c[nH]c2cc(Cl)cc(Br)c12 [Compound 42, quinuclidin-4-ylmethyl 4-bromo-6-chloro-1H-indole-3-carboxylate] | 2.87 h | –
15 | COc1cc2[nH]cc(C(=O)OCC34CCN(CC3)CC4)c2cc1C [Compound 56, quinuclidin-4-ylmethyl 6-methoxy-5-methyl-1H-indole-3-carboxylate] | 5.72 h | –
16 | O=C(OCC12CCN(CC1)CC2)c1c[nH]c2cc(F)cc(Br)c12 [Compound 41, quinuclidin-4-ylmethyl 4-bromo-6-fluoro-1H-indole-3-carboxylate] | – | ∞
17 | Cc1cc2c(C(=O)OCC34CCN(CC3)CC4)c[nH]c2cc1O [Compound 55, quinuclidin-4-ylmethyl 6-hydroxy-5-methyl-1H-indole-3-carboxylate] | 1.54 h | –
18 | Cc1c(OCC(F)(F)F)ccc2[nH]cc(C(=O)OCC34CCN(CC3)CC4)c12 [Compound 94, quinuclidin-4-ylmethyl 4-methyl-5-(2,2,2-trifluoroethoxy)-1H-indole-3-carboxylate] | 5.74 h | –
19 | O=C(OCC12CCN(CC1)CC2)c1c[nH]c2ccc(F)c(Br)c12 [Compound 67, quinuclidin-4-ylmethyl 4-bromo-5-fluoro-1H-indole-3-carboxylate] | 96.9 h | –
20 | Cc1c(OCCO)ccc2[nH]cc(C(=O)OCC34CCN(CC3)CC4)c12 [Compound 95, quinuclidin-4-ylmethyl 5-(2-hydroxyethoxy)-4-methyl-1H-indole-3-carboxylate, 2,2,2-trifluoroacetate salt] | 6.61 h | –
21 | COc1ccc2[nH]cc(C(=O)OCC34CCN(CC3)CC4)c2c1Br [Compound 47, quinuclidin-4-ylmethyl 4-bromo-5-methoxy-1H-indole-3-carboxylate] | 4.34 h | –
22 | COc1cc(C)c2c(C(=O)OCC34CCN(CC3)CC4)c[nH]c2c1 [Compound 37, quinuclidin-4-ylmethyl 6-methoxy-4-methyl-1H-indole-3-carboxylate] | – | ∞
23 | Cc1ccc2[nH]cc(C(=O)OCC34CCN(CC3)CC4)c2c1Cl [Compound 63, quinuclidin-4-ylmethyl 4-chloro-5-methyl-1H-indole-3-carboxylate] | 7.05 h | –
24 | O=C(OCC12CCN(CC1)CC2)c1c[nH]c2cc(O)cc(Cl)c12 [Compound 46, quinuclidin-4-ylmethyl 4-chloro-6-hydroxy-1H-indole-3-carboxylate] | 14.3 h | –
25 | Cc1cc(Br)c2c(C(=O)OCC34CCN(CC3)CC4)c[nH]c2c1 [Compound 49, quinuclidin-4-ylmethyl 4-bromo-6-methyl-1H-indole-3-carboxylate] | 13.8 h | –
26 | COCCOc1ccc2[nH]cc(C(=O)OCC34CCN(CC3)CC4)c2c1C [Compound 91, quinuclidin-4-ylmethyl 5-(2-methoxyethoxy)-4-methyl-1H-indole-3-carboxylate] | 8.32 h | –
27 | COc1cc(C#N)cc2[nH]cc(C(=O)OCC34CCN(CC3)CC4)c12 [Compound 77, quinuclidin-4-ylmethyl 6-cyano-4-methoxy-1H-indole-3-carboxylate] | 3.87 h | –
28 | COc1cc2c(C(=O)OCC34CCN(CC3)CC4)c[nH]c2cc1O [Compound 86, quinuclidin-4-ylmethyl 6-hydroxy-5-methoxy-1H-indole-3-carboxylate] | 0.954 h | –
29 | CNCCCOc1ccc2[nH]cc(C(=O)OCC34CCN(CC3)CC4)c2c1C [Compound 96, quinuclidin-4-ylmethyl 4-methyl-5-(3-(methylamino)propoxy)-1H-indole-3-carboxylate dihydrochloride] | 0.114 h | –
30 | COc1c(OCC(F)(F)F)ccc2[nH]cc(C(=O)OCC34CCN(CC3)CC4)c12 [Compound 88, quinuclidin-4-ylmethyl 4-methoxy-5-(2,2,2-trifluoroethoxy)-1H-indole-3-carboxylate] | – | ∞

Same assay, conditions: human; Protocol 2; plasma pH 7.4 to 8.0, 5 μM, 37° C.; read-out: T1/2

Row | SMILES | half-life at 5 μM
31 | Cl.O=C(OCC12CCN(CC1)CC2)c1c[nH]c2cc(F)c(F)cc12 [Compound 51, Quinuclidin-4-ylmethyl 5,6-difluoro-1H-indole-3-carboxylate hydrochloride] | 5.89 h
32 | Cc1cc2c(C(=O)OCC34CCN(CC3)CC4)c[nH]c2cc1C#N [Compound 84, quinuclidin-4-ylmethyl 6-cyano-5-methyl-1H-indole-3-carboxylate] | 3.49 h
33 | Cc1cc2[nH]cc(C(=O)OCC34CCN(CC3)CC4)c2cc1F [Compound 72, Quinuclidin-4-ylmethyl 5-fluoro-6-methyl-1H-indole-3-carboxylate hydrochloride] | 3.8 h
34 | Cc1cc2[nH]cc(C(=O)OCC34CCN(CC3)CC4)c2cc1C.Cl [Compound 73, Quinuclidin-4-ylmethyl 5,6-dimethyl-1H-indole-3-carboxylate hydrochloride] | 1.57 h
35 | Cl.O=C(OCC12CCN(CC1)CC2)c1c[nH]c2cc(Cl)c(F)cc12 [Compound 52, Quinuclidin-4-ylmethyl 6-chloro-5-fluoro-1H-indole-3-carboxylate hydrochloride] | 8.88 h
36 | COc1cc(Cl)cc2[nH]cc(C(=O)OCC34CCN(CC3)CC4)c12.Cl [Compound 74, quinuclidin-4-ylmethyl 6-chloro-4-methoxy-1H-indole-3-carboxylate hydrochloride] | 2.94 h
37 | Cc1cc(Cl)c2c(C(=O)OCC34CCN(CC3)CC4)c[nH]c2c1.Cl [Compound 65, quinuclidin-4-ylmethyl 4-chloro-6-methyl-1H-indole-3-carboxylate hydrochloride] | 5.56 h
38 | Cl.O=C(OCC12CCN(CC1)CC2)c1c[nH]c2cc(Cl)cc(Cl)c12 [Compound 71, quinuclidin-4-ylmethyl 4,6-dichloro-1H-indole-3-carboxylate hydrochloride] | 4.71 h
